Assay results from ChEMBL document CHEMBL5465560, “Selectivity Literature for EUbOPEN Chemogenomic Library” (2024).

Legend:
[1] = target: Tyrosine-protein kinase ABL1 (Homo sapiens, UniProt P00519); test: Selectivity interaction (KinaseProfiler screening (Millipore)) EUB0000601a ABL1; settings: at 3 µM
[2] = test system: Epidermal growth factor receptor (Homo sapiens), P00533 [G719C]; test: (§1) Selectivity interaction (KinomeScan (DiscoverX)) EUB0001079a EGFR; settings: at 1 µM
[3] = test system: Epidermal growth factor receptor (Homo sapiens), P00533 [G719S]; test: as §1; settings: at 1 µM
Sequence of Epidermal growth factor receptor (Homo sapiens), P00533 [G719S] (P00533 whole entry G719S): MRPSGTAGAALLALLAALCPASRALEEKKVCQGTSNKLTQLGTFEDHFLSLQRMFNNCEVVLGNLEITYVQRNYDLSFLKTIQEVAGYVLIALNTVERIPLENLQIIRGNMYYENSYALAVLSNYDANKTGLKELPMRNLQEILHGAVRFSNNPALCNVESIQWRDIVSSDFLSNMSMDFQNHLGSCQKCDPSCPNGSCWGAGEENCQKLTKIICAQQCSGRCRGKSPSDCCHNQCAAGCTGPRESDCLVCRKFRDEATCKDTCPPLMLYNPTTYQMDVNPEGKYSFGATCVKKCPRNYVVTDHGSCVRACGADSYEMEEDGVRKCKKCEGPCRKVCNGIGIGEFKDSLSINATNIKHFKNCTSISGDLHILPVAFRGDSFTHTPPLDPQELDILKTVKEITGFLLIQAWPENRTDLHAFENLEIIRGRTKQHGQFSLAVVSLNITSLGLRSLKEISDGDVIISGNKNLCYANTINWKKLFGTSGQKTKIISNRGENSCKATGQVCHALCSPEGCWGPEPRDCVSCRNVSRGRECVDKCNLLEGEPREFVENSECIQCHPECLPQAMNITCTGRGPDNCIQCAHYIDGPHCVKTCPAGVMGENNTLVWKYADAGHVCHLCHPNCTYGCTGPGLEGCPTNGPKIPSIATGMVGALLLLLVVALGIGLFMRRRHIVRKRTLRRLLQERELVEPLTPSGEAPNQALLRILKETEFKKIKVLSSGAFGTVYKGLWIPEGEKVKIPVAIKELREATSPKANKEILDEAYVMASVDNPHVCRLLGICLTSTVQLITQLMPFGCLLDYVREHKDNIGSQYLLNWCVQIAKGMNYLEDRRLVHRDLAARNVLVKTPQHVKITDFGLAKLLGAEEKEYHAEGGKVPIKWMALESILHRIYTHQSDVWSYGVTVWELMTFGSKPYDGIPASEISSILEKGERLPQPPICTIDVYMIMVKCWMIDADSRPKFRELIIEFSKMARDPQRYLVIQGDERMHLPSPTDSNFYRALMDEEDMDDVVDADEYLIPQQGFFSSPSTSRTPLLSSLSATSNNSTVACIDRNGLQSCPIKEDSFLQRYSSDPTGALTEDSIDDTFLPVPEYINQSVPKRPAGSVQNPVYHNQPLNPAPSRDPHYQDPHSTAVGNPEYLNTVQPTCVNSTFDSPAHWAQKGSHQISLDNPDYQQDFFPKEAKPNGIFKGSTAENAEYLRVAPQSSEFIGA

[4] = test system: Epidermal growth factor receptor (Homo sapiens), P00533 [L858R,T790M]; test: as §1; settings: at 1 µM
Sequence of Epidermal growth factor receptor (Homo sapiens), P00533 [L858R,T790M] (P00533 whole entry T790M/L858R, looked up): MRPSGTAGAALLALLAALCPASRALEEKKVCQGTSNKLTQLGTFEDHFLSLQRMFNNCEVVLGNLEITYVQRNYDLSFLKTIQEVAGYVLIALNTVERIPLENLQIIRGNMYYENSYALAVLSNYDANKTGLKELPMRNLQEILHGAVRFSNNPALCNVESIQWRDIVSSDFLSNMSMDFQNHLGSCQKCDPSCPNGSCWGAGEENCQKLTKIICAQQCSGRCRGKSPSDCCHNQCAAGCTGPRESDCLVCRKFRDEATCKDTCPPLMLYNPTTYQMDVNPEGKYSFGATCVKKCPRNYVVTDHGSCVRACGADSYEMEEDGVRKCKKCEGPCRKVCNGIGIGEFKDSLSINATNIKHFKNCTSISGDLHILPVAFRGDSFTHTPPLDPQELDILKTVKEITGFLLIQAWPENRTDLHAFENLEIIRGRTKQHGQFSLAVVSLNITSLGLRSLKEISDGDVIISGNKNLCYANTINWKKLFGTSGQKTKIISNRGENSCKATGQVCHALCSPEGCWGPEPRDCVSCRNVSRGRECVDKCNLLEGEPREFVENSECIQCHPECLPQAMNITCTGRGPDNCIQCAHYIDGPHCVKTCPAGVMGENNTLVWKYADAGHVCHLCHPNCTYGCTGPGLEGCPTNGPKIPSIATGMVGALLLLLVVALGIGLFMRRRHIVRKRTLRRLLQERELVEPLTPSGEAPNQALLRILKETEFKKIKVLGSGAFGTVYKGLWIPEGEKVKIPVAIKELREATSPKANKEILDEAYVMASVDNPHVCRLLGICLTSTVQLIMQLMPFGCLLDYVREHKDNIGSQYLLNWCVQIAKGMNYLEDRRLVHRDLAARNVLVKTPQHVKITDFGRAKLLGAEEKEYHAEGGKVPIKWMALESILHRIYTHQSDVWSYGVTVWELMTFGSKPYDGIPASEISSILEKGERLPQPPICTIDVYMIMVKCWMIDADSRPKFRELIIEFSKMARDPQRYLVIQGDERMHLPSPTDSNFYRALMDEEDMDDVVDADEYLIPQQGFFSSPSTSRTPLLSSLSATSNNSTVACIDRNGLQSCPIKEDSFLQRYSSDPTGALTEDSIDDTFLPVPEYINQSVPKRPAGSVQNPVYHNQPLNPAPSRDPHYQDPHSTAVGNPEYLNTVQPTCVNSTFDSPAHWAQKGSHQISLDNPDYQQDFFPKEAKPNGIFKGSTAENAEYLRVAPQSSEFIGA

[5] = test system: Epidermal growth factor receptor (Homo sapiens), P00533 [L858R]; test: as §1; settings: at 1 µM
[6] = test system: Epidermal growth factor receptor (Homo sapiens), P00533 [L861Q]; test: as §1; settings: at 1 µM
[7] = test system: Epidermal growth factor receptor (Homo sapiens), P00533 [T790M]; test: as §1; settings: at 1 µM
[8] = test system: Epidermal growth factor receptor (Homo sapiens), P00533 [UNDEFINED MUTATION]; test: as §1; settings: at 1 µM
[9] = target: Epidermal growth factor receptor (Homo sapiens, UniProt P00533); test: as §1; settings: at 1 µM
[10] = target: T1, Discoidin domain-containing receptor 2 (Homo sapiens) (UniProt Q16832); settings: at 10 µM
T1 sequence (whole entry): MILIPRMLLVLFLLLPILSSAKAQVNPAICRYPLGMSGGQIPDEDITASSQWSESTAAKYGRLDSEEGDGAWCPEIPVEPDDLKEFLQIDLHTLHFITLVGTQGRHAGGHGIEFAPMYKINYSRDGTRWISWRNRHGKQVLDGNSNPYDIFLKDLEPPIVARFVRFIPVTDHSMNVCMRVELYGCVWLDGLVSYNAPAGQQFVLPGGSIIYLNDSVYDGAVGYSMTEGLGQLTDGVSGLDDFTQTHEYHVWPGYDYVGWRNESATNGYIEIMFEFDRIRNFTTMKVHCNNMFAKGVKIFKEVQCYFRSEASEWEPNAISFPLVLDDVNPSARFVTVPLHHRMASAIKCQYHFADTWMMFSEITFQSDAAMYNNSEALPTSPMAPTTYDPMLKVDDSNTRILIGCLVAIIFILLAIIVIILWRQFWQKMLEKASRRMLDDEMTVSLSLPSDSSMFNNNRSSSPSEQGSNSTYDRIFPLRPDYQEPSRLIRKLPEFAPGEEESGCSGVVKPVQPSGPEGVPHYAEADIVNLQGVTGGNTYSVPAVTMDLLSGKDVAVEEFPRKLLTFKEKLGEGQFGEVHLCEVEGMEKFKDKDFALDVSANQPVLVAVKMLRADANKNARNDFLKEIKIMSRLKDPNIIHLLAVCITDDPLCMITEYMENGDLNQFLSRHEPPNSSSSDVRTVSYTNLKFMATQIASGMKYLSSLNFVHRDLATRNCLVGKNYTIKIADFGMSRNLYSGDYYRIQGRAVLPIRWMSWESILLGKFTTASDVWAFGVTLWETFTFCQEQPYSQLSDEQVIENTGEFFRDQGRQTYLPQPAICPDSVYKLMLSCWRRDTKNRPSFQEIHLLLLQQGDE

[11] = target: T2, Aurora kinase A (Homo sapiens) (UniProt O14965); test: Selectivity interaction (ActivX KiNativ screen (kinase selectivity in THP-1 cell lysates)) EUB0000639a STK6; format: subcellular; settings: lysate, at 0.2 µM
T2 sequence (whole entry): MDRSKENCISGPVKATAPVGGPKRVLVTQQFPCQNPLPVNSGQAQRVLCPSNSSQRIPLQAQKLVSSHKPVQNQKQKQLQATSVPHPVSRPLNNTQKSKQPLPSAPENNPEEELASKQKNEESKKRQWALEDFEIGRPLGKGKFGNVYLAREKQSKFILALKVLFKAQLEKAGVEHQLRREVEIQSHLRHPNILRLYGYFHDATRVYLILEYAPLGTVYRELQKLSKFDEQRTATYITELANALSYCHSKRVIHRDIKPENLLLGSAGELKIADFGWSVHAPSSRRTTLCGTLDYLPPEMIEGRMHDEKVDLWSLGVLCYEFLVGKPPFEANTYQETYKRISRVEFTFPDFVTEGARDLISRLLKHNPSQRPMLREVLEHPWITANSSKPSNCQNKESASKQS

[12] = target: Serine/threonine-protein kinase SIK2 (Homo sapiens) (UniProt Q9H0K1); settings: at 10 µM
Sequence of Serine/threonine-protein kinase SIK2 (Homo sapiens) (Q9H0K1 whole entry, looked up): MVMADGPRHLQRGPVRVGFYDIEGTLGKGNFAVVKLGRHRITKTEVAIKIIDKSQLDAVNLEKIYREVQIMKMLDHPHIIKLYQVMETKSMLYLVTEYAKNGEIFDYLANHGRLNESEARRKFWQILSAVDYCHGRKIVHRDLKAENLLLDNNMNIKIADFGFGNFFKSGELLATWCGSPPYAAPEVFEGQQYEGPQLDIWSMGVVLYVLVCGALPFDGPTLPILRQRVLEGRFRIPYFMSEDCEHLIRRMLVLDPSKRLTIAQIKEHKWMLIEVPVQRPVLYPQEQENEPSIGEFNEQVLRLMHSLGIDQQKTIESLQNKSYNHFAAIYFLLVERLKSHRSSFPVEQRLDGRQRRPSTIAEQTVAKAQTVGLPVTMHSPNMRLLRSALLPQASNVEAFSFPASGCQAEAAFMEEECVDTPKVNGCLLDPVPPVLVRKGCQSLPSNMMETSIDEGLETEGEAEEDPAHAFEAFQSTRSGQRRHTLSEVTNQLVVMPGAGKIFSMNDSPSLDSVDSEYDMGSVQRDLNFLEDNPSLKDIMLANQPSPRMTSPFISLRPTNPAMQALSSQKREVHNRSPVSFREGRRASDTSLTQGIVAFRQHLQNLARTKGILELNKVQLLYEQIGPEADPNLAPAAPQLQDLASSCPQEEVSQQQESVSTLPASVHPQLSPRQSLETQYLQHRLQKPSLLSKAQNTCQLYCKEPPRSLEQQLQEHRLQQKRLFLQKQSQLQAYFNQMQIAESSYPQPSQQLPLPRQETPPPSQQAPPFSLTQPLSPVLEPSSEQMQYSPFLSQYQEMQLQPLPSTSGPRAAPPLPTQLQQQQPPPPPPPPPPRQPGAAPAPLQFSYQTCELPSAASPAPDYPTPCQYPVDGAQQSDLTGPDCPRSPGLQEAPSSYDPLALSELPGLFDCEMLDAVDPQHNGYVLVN

[13] = target: Tyrosine-protein kinase JAK2 (Homo sapiens, UniProt O60674); test: Selectivity interaction (Kinase counterscreening (biochemical assay)) EUB0000604a JAK2
[14] = target: Tyrosine-protein kinase Lyn (Homo sapiens, UniProt P07948); test: Selectivity interaction (Ambit KINOMEscan and KiNATiv profiling in Jurkat cells) EUB0000090b LYN; format: cell-based; settings: at 1 µM
Sequence of Tyrosine-protein kinase Lyn (P07948 2-512 limits assumed): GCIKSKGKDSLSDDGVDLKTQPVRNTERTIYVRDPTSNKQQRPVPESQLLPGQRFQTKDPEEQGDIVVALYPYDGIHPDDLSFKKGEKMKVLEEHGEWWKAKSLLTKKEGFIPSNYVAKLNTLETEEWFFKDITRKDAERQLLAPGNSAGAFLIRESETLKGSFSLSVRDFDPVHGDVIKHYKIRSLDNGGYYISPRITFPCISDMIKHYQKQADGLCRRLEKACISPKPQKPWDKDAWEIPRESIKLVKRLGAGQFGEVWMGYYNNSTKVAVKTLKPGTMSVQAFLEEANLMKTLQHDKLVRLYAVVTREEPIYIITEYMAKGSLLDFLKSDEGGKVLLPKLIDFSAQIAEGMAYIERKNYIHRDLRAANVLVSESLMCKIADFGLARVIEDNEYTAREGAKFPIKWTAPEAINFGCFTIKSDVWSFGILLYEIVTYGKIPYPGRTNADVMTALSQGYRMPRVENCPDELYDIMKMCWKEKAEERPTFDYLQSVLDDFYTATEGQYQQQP

[15] = target: Serine/threonine-protein kinase N2 (Homo sapiens, UniProt Q16513); test: Selectivity interaction (Ambit KINOMEscan and KiNATiv profiling in Jurkat cells) EUB0000090b PKN2; format: cell-based; settings: at 1 µM
Sequence of Serine/threonine-protein kinase N2 (Q16513 whole entry, looked up): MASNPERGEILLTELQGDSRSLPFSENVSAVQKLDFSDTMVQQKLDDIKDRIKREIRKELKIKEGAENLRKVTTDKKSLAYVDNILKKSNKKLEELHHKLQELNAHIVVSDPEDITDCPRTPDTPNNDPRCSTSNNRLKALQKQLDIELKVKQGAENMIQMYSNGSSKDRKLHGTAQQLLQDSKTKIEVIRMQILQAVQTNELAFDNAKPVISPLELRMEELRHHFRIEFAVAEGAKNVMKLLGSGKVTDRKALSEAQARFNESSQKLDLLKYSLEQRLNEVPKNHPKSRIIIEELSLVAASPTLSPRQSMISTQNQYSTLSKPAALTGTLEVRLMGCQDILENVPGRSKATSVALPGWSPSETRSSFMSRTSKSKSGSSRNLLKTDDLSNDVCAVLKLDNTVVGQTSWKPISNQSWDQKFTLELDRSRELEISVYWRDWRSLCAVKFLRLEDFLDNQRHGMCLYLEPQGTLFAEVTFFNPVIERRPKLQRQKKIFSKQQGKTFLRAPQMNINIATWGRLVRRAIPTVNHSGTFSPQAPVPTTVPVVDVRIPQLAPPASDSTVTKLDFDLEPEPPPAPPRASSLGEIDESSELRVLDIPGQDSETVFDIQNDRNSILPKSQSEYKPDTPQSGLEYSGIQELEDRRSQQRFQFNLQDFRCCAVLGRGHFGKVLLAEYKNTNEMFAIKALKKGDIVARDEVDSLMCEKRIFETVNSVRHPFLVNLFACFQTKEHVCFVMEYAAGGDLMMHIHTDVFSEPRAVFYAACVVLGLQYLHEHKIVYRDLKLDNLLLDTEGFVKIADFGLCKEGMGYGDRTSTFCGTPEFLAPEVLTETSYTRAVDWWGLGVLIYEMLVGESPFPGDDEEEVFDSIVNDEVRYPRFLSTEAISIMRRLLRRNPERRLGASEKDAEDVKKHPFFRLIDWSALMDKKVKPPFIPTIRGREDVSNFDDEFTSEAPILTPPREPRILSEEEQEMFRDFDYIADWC

[16] = target: T3, Interleukin-1 receptor-associated kinase 4 (Homo sapiens) (UniProt Q9NWZ3); test: Selectivity interaction (Upstate Kinase Profiler service (Millipore)) EUB0000056c IRAK4; settings: at 1 µM
T3 sequence (whole entry): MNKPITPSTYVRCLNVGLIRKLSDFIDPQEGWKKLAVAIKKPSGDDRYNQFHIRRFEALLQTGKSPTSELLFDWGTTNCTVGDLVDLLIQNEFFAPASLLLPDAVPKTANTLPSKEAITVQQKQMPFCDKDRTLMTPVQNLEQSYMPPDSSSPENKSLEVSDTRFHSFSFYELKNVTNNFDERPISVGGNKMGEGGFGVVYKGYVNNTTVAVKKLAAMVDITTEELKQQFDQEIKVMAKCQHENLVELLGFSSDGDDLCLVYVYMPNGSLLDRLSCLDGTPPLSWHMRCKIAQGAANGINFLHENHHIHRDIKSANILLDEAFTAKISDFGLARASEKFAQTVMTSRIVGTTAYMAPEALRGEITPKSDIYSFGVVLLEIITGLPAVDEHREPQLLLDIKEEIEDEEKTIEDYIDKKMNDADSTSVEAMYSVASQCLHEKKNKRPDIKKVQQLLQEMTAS

`CCc1cc(Nc2nccc(-c3c(-c4ccc(OC)c(C(=O)Nc5c(F)cccc5F)c4)nc4ccccn34)n2)c(OC)cc1N1CCC(N2CCN(S(C)(=O)=O)CC2)CC1` gave a % of inhibition [1] of 57%.

In the case of `Nc1cnc(N2CCc3cc(S(=O)(=O)Nc4c(F)cc(Cl)cc4F)cc(N4CCCC4=O)c32)nc1` [TP-020n], the % of control [2] is reported as 100%, the % of control [3] is reported as 75% and the % of control [4] is reported as 77%. The % of control [5] was 85%, the % of control [6] was 100% and the % of control [7] was 88%. For the same compound, the % of control [8] was 74% and the % of control [9] was 82%.

`CCN(CC)CCCCNc1ncc2cc(-c3cc(OC)cc(OC)c3)c(NC(=O)NC(C)(C)C)nc2n1` showed a % of control [10] of 100%.

`CC[C@@H]1[C@H](F)C(=O)N[C@@H]1COc1nccc2cc(C(N)=O)c(OC)cc12` [ZIMLOVISERTIB] showed a % of inhibition [11] of -1%.

In the case of `COCC(=O)NC/C=C/c1ccc2ncnc(Nc3ccc(Oc4ccc(C)nc4)c(C)c3)c2c1` [CP-724714], the % of control [12] is reported as 84%.

With `Cc1cnc(Nc2ccc(F)cc2Cl)nc1-c1c[nH]c(C(=O)N[C@H](CO)c2cccc(Cl)c2)c1` the Ki [13] was > 4 µM.

With `CN(C)C/C=C/C(=O)Nc1ccc(C(=O)N2CCCC(Nc3ncc(Cl)c(-c4c[nH]c5ccccc45)n3)C2)cc1` (stereo unspecified) the % of control [14] was 100% and the % of control [15] was 98%.

In the case of `Cc1ccc(-c2ccc3c(ccc4sc5c(c43)NC[C@@H](C)NC5=O)n2)cn1`, the % of inhibition [16] is reported as 13%.
